The source of these data is publication PMC11240562 (2024).

The subject of test [1] is ODN1/ODN2 duplex (X = A, Y = T) (DNA, duplex) CTCAGAGTAAGG/CCTTACTCTGAG
Nature of the test: UV melting. Particulars: Na+ (150 mM NaCl, sodium phosphate); no significant Tm change; duplex 2 μM, CB[7] 4 μM; 10 mM phosphate pH 7.0.

The subject of test [2] is ODN1/ODN2 duplex (X = ^Am2dA, Y = T) (DNA, duplex, ^Am2dA (N6-adenosine bearing 1-aminoadamantane via C2 linker) at 6 of strand 1) CTCAGAGTAAGG/CCTTACTCTGAG
In words: UV melting. The note with it: Na+ (150 mM NaCl, sodium phosphate); destabilisation (Tm lowered by CB[7]); duplex 2 μM, CB[7] 4 μM; 10 mM phosphate pH 7.0.

Test [3] has as its system ODN1/ODN2 duplex (X = ^Am3dA, Y = T) (DNA, duplex, ^Am3dA (N6-adenosine bearing 1-aminoadamantane via C3 linker) at 6 of strand 1) CTCAGAGTAAGG/CCTTACTCTGAG
In words: UV melting. The note with it: Na+ (150 mM NaCl, sodium phosphate); destabilisation (Tm lowered by CB[7]); duplex 2 μM, CB[7] 4 μM; 10 mM phosphate pH 7.0.

The test system of test [4] is ODN1/ODN2 duplex (X = ^Am4dA, Y = T) (DNA, duplex, ^Am4dA (N6-adenosine bearing 1-aminoadamantane via C4 linker) at 6 of strand 1) CTCAGAGTAAGG/CCTTACTCTGAG
In words: UV melting. The note with it: Na+ (150 mM NaCl, sodium phosphate); destabilisation (Tm lowered by CB[7]); duplex 2 μM, CB[7] 4 μM; 10 mM phosphate pH 7.0.

Test [5] relates to ODN3/ODN4 duplex (X = ^Am2dA, Y = T), dye-labelled (DNA, duplex, ^Am2dA (N6-adenosine bearing 1-aminoadamantane via C2 linker) at 6 of strand 1) CTCAGAGTAAGG/CCTTACTCTGAG
In words: FAM/Dabcyl fluorescence time course, kout/kin. Particulars: Na+ (150 mM NaCl, sodium phosphate), apparent, host binds guest tethered to DNA, duplex dissociates, 10 mM phosphate pH 7.0, 37 °C.

In the case of `O=C1N2CN3C(=O)N4CN5C(=O)N6CN7C(=O)N8CN9C(=O)N%10CN%11C(=O)N%12CN%13C(=O)N%14CN1C1C2N2CN%15C(=O)N(CN%16C(=O)N(CN%17C(=O)N(CN%18C(=O)N(CN%19C(=O)N(CN%20C(=O)N(CN1C2=O)C%14C%13%20)C%12C%11%19)C%10C9%18)C8C7%17)C6C5%16)C4C3%15` (centres unmarked), in test [1], the binding entry is “no”. Besides, the shift in melting temperature (ΔTm) (as a rule, the change in melting temperature against a reference sample) in test [2] amounted to 20.4 °C; in test [3], 3.6 °C; in test [4] it was 4.7 °C. The Kd in test [5] was 1.0 × 10^–9 M.
